Source: patent publication US20230165906A1, “COMPOSITIONS AND METHODS FOR USING TRANSPLANTED MICROGLIA AS A VEHICLE FOR WIDESPREAD DELIVERY OF CELLS AND OTHER BIOLOGIC AGENTS TO THE BRAIN” (Albert Einstein College of Medicine, priority 2020, published 2023)

Assays:
[1] = system: cultured human primary microglia; assay: Screening of human microglia for resistance to PLX5622-induced cell death; assay type: cell-based; settings: for resistance to PLX5622-mediated cell ablation: mutant CSF1R expressed in cultured human primary microglia via retrovirus infection
Description: (§1) FIGS. 5A-I show screening of human and mouse microglia for resistance to PLX5622. Human microglia (5A) are normally susceptible to CSF1R antagonist PLX5622-induced cell death (5B). […] Similarly, mouse microglia (5G) are normally susceptible to CSF1R antagonist-induced cell death (5H).
Although dispersion of mouse microglia was achieved using the protocol described in Example 2, continued genetic ablation of host microglia after transplantation of donor microglia cannot likely be used in a clinical setting. Therefore, to achieve dispersion of microglia independent of any genetic manipulations, a novel method to make microglia resistant to ablation by a CSF1R inhibitor such as PLX5622 was developed. Based on the mechanism of action of PLX5622 (antagonizing the critical CSF1R receptor), mutant forms of CSF1R that are constitutively active and potentially convey resistance to PLX5622 were screened (FIG. 5). […] Mutant CSF1Rs were expressed in human donor microglia via retrovirus infection. Such PLX5622-resistant microglia can then be transplanted to hosts in which endogenous microglia are continuously being depleted pharmacologically with PLX5622 post transplantation to allow donor microglia to outcompete residual endogenous microglia for repopulation. We are currently testing resistance of microglia expressing CSFIR^L301S and others to PLX5622 ablation in vivo.

[2] = system: host microglia; assay: Pharmacological ablation of host microglia in vivo (Iba1 staining); settings: PLX5622 given to mice via chow for 7 days prior to transplantation
Description: For pharmacological ablation of host microglia, PLX5622 (Plexxikon Inc.), a drug that inhibits CSF1R, was given to the mice via chow for 7 days prior to transplantation. This treatment kills approximately 90% of host microglia (FIG. 3). PLX5622 is a blood-brain-barrier permeable drug in clinical trials. Two days before transplantation, PLX5622 treatment was stopped to avoid potentially killing donor cells. […]. Thus, with daily injection of tamoxifen, donor microglia outcompete host microglia for repopulation.

[3] = system: mouse microglia; assay: Screening of mouse microglia for resistance to PLX5622-induced cell death; assay type: cell-based; settings: no mutant CSF1R
Description: as §1

Compound | susceptibility to CSF1R antagonist PLX5622-induced cell death ([1]; human microglia, no mutant CSF1R) | host microglia killed [2] | susceptibility to CSF1R antagonist-induced cell death [3] | resistance to PLX5622-mediated cell ablation [1]
COc1ncc(F)cc1CNc1ccc(Cc2c[nH]c3ncc(C)cc23)c(F)n1 [PLX5622, 6-fluoro-N-[(5-fluoro-2-methoxypyridin-3-yl)methyl]-5-[(5-methyl-1H-pyrrolo[2,3-b]pyridin-3-yl)methyl]pyridin-2-amine] | susceptible | approximately 90% | susceptible | –
CSF1R^L301S: constitutively active gain-of-function mutant CSF1R expressed in donor microglia | – | – | – | high resistance
CSR1R^Y571D: constitutively active gain-of-function mutant CSF1R expressed in donor microglia | – | – | – | high resistance
CSR1R^Y969F: constitutively active gain-of-function mutant CSF1R expressed in donor microglia | – | – | – | high resistance
